Reference: patent US12599592B2, “Therapeutic small molecules for treatment of pulmonary hypertension” (UNIVERSITY OF PITTSBURGH—OF THE COMMONWEALTH SYSTEM OF …, priority 2020, dated 2026)

What was measured:
hypoxic IL-6 Tg mice = assay: Hypoxic IL-6 transgenic pulmonary arterial hypertension mouse model; assay type: in vivo, IL-6 transgenic C57BL/6 mice
Description: (§1) Following euthanasia, right ventricle/[left ventricle+septum]
Pulmonary-specific IL-6 transgenic mice (C57BL/6 background) were described previously (Steiner M K et al. Circ Res. 2009, 104, 236-244, 228p following 244). These mice were bred in house, and 12 week old male transgenic mice vs. control littermates were compared. Mice were injected i.p. every 3 days with vehicle control (2.5% DMSO) vs. BRD2889 (5 mg/kg vs. 10 mg/kg), followed by exposure to normobaric hypoxia (10% O2; OxyCycler chamber, Biospherix Ltd, Redfield, NY) for 14 days, as described (Steiner M K et al. Circ Res. 2009, 104, 236-244, 228p following 244).
(§2) Rodent echocardiography: Echocardiography was performed using a 15-45 MHz transthoracic transducer and a Visual Sonics Vevo 3100 system (Fujifilm). Inhaled isoflurane anesthesia was used at 2% in 100% O2 during positioning and hair removal and then decreased to isoflurane 0.8% during imaging.

mitochondrial Complex I = assay: Mitochondrial Complex I activity in PAECs; assay type: cell-based, human
GST activity = GST activity in PASMCs; assay type: cell-based, human; details: IL-6/R + hypoxia, BRD2889 1 uM
Description: (§3) In IL-6/sIL-6R+hypoxia experiments, a human recombinant IL-6/IL-6R alpha protein chimera (25 ng/ml, Millipore) was administered at 70-80% confluency for 48 h in complete media along with vehicle control (DMSO, Sigma-41639). BRD2889 (1 uM) vs. vehicle control were added, as indicated, and placed into a hypoxia chamber for 24 h. The hypoxia chamber (modular incubator chamber) was obtained from Billups-Rothenberg Inc. (Del Mar, Calif) and placed in regulated CO2 incubator at 37° C.

ISCU = assay: Immunoblot of ISCU and GSTP1 in PASMCs; assay type: cell-based, human; details: BRD2889 1 uM
Description: as §3
Immunoblot and densitometry: Cells were lysed in RIPA buffer (Sigma) along with 1× protease inhibitor cocktail (Sigma). Protein lysate was resolved by gradient 4%-15% SDS-PAGE gels and transferred onto a 0.2 μm PVDF membrane (Bio-Rad). Membranes were blocked in 5% non-fat milk in 1×PBST buffer for one hour at room temperature. Later, they were incubated in the presence of the primary antibody overnight at 4° C. and then appropriate HRP-conjugated secondary antibodies (Life Technologies). The following antibodies were used: human LGALS8 (AF1305, RnD Systems), mouse/rat Lgals8 (ab69631, Abcam), pSTAT1 (ab29045, Abcam) and STAT1 (ab47425, Abcam), GSTP1 (ab153949, Abcam), ISCU (14812-1-AP, Prointech), Glutathione (ab19534, Abcam), HIF2A (NB100-122, Novous), α-Tubulin (CP06, Millipore sigma), and ACTB (sc-47778, Santa Cruz). […] The images were later quantified using AlphaEaseFC software (Alpha Innotech).

[1] = system: C43 genes (ISCU, mTOR); EDN1, VCAM1, ICAM1; assay: RT-qPCR of Cluster 43 and proinflammatory genes in PAECs; assay type: cell-based, human
Description: as §3, with “BRD2889 (1 uM) vs. vehicle control were added, as indicated, and placed into a hypoxia chamber for 24 h.” left out
RT-qPCR analysis: Cells were lysis in 1 ml of QiaZol reagent (Qiagen). Total RNA content was extracted using the RNeasy kit (Qiagen), according to the manufacturer's instructions. Total RNA concentration was determined using a BioTek Synergy multimode plate reader. Messenger RNAs were reverse transcribed to generate cDNA using the Multiscript RT kit (Thermo Fisher Scientific). cDNA for specific gene targets was amplified and quantified via fluorescently-labeled Taqman primer sets and Taqman fast advanced master mix (Thermo Fisher Scientific) using an Applied Biosystems QuantStudio 6 Flex Real-Time PCR System.

[2] = biological target: glutathione S-transferase pi 1 (GSTP1) (Homo sapiens, UniProt P09211); details: literature report; cited from earlier work
Chain of glutathione S-transferase pi 1 (GSTP1) (P09211 whole entry, species assumed): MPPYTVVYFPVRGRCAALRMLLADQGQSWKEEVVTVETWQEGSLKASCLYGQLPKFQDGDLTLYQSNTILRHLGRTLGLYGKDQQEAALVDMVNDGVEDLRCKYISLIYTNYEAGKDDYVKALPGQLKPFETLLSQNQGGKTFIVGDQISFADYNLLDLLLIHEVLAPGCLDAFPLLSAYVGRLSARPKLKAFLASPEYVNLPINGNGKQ

[3] = system: SU5416-hypoxic pulmonary arterial hypertension rats; assay: SU5416-hypoxia pulmonary arterial hypertension rat model; assay type: in vivo, Sprague-Dawley rats
Description: Briefly, 10 week old male Sprague-Dawley rats were injected i.p. with 20 mg/kg of SU5416 (Sigma), placed in normobaric hypoxia (10% O2) for 3 weeks and then transferred to normoxia for 2 weeks. During hypoxic exposure, chambers were opened twice a week for cleaning and replenishment of food and water. […] For BRD2889 vs. vehicle control dosing, i.p. injections every 5 days (5 mg/kg) were administered during the final two weeks of normoxia. Oxygen concentrations were continuously monitored with blood gas analyzers.
as §1
(§4) Measurement of GST activity: The GST activity from lung tissue and PAECs was assayed using GST assay kit (Cayman, MI, USA) per the manufacturer's instructions.
as §2

[4] = system: monocrotaline-exposed pulmonary arterial hypertension rats; assay: Monocrotaline (MCT) pulmonary arterial hypertension rat model; details: BRD2889 5 mg/kg i.p. every 5 days, Days 12-26 post-MCT
Description: as §1, §4

PAECs = assay: BrdU proliferation assay in PAECs; assay type: cell-based, human
Description: BrdU growth assay: Cell proliferation was assayed relative to day 0 using a BrdU Cell Proliferation Assay Kit (#6813, Cell Signaling) according to the manufacturer's protocol after incubation for 2 h with BrdU.

[5] = BRD2889 10 mg/kg vs vehicle, 10 days of treatment
[6] = BRD2889 5 and 10 mg/kg IP every three days
[7] = hypoxic PAECs with siRNA knockdown of ISCU
[8] = BRD2889 5 mg/kg i.p. every 5 days

Compound: COc1ccc(C#CC2CCCN(C(=O)/C=C/c3cc(OC)c(OC)c(OC)c3)C2=O)cc1 (stereo not drawn) [BRD2889]
- lung total GST enzyme activity (hypoxic IL-6 Tg mice; BRD2889 5 mg/kg (low) and 10 mg/kg (high) IP every three days, 14 days hypoxia): dose-dependent reduction
- heart rate (hypoxic IL-6 Tg mice; [5]): No differences
- left ventricular function (fractional shortening, ejection fraction, PW thickness) (hypoxic IL-6 Tg mice; [5]): No differences
- Fulton index (hypoxic IL-6 Tg mice; [6]): dose-dependent reduction
- ISCU in arterioles, particularly CD31+ endothelium (in situ staining) (hypoxic IL-6 Tg mice; [6]): rescued
- RVSP (hypoxic IL-6 Tg mice; [6]): dose-dependent reduction
- arteriolar muscularization (hypoxic IL-6 Tg mice; [6]): reduced
- cleaved caspase-3 (CC-3) in whole vessels (hypoxic IL-6 Tg mice; [6]): decreased
- mitochondrial Complex I activity (mitochondrial Complex I; PAECs, IL-6/sIL-6R + hypoxia): partially rescued
- iron-sulfur-dependent mitochondrial Complex I activity (mitochondrial Complex I; hypoxic PAECs): reversed the decrease
- hypoxia-induced decrease in mitochondrial Complex I activity (mitochondrial Complex I; [7]): did not reverse
- GST activity (GST activity): did not affect
- GSTP1 protein expression (ISCU; IL-6/R + hypoxia): did not affect
- ISCU protein (ISCU; IL-6/sIL-6R + hypoxia): failed to rescue
- inflammatory gene transcripts (EDN1, VCAM1, ICAM1) ([1]; IL-6/sIL-6R + hypoxia): normalized this upregulation
- C43 genes MID2, BANP, AGTRAP transcripts ([1]; hypoxia 48 hrs, BRD2889 5 uM): unaffected in hypoxia
- ISCU transcript (RT-qPCR) ([1]; hypoxia 48 hrs, BRD2889 5 uM): fully reversing the hypoxic decrease
- mTOR transcript (RT-qPCR) ([1]; hypoxia 48 hrs, BRD2889 5 uM): partially reversing the decrease
- inhibition of GSTP1 [2]: known to inhibit
- Fulton index (RV/LV+S) [3, 8]: reduced
- ISCU in CD31+ endothelium [3, 8]: increased
- arteriolar muscularization [3, 8]: reduced
- cleaved caspase-3 (CC-3) in CD31+ endothelium [3, 8]: decreased
- right ventricular systolic pressure (RVSP) [3, 8]: reduced
- lung GST activity ([3]; BRD2889 5 mg/kg i.p. every 5 days, final 2 weeks in normoxia): decreased
- left ventricular function (LVPW thickness, LVEF, LVFS) ([3]; BRD2889 vs vehicle): did not exhibit altered left ventricular function
- ascites ([3]; three SU5416-hypoxic rats treated with drug): accumulation of mild ascites
- Fulton index (RV/LV+S) [4]: reduced
- RVSP [4]: reduced
- arteriolar muscularization [4]: reduced
- cleaved caspase-3 (CC-3) [4]: decreased
- endothelial ISCU [4]: increased
- lung GST activity [4]: decreased
- proliferation (BrdU) (PAECs; PAECs, IL-6/sIL-6R + hypoxia): increased proliferation
- proliferation (BrdU incorporation) (PAECs; hypoxic PAECs): reversed the decrease
- hypoxia-induced decrease in proliferation (PAECs; [7]): did not reverse
